The subject of assay [1] is Eimeria tenella. Nature of the assay: In vivo anticoccidial activity upon single inoculation (broilers, formulated feed). Also noted: key to ACI: ACI out of 200 = survival% + RWG% − lesion×10 − oocyst index. To be noted: Eimeria tenella infection; for Lesion score: appendix, scale 0-4, 8th day; for Oocyst excretion amount/g: feces day 6-8; for Lesion index: lesion score x 10; for ACI: out of 200 points; for Survival rate after challenge inoculation (%): up to 8th day; for RWG(%): vs non-infected negative control. On the procedure:
An in vivo anticoccidial efficacy evaluation test was performed in an animal experiment facility in Gyeongsangnam-do, South Korea. One-day-old female Ross broilers were individually weighed and randomly divided into groups to use in an experiment. Matters and conditions for experimental design were described in Table 2.
A breeding farm was managed according to the Korean poultry breeding management guidelines. Cages and the breeding farm were cleaned and disinfected before starting the test. The temperature of […] and the humidity of 40 to 50% of the breeding farm were maintained, and it was continuously monitored.
For the feed, Korea Feed Al-choi product was used, and each material (diclazuril (Yuhan Corporation YUHAN DICLA product), salinomycin (Cheil Bio Cheilsalino-60 product), violacein (CJ Cheiljedang)) was added to the feed, respectively, at a concentration described in Table 3 below to be self-mixed. Antibiotics and supplements were not used in general feed and mixed feed, and no anticoccidial agent other than each material was added. Broilers were fed ad libitum throughout the experiment period. After putting 15 1-day-age broilers in cages randomly placed for each of the control group or test group and breeding, general feed (Al-choi product) was fed for 7 days, and then the mixed feed prepared above was ingested by dividing by control group or test group. The non-infected negative control group used 1cage, and the infected negative control group and experimental group used 2cage to progress the experiment.
The feed formulation administered to the control group (negative control group or positive control group) and test group and whether coccidiosis was induced by Eimeria tenella were described in Table 3 below.
14-day-old broilers were orally inoculated with 10,000 oocysts (90% sporulated Eimeria tenella oocysts) per individual to induce coccidiosis.
The anticoccidial efficacy by test group designed in Example 1-2 above was shown as an anticoccidial index (ACI), and the anticoccidial index was calculated by Equation 2 below. The ACI score is out of 200 points, and the higher the ACI score, the more excellent the anticoccidial ability, and when it is 120 points or more to less than 140 points, it is determined that it is effective as an anticoccidial material, and when it is 140 points or more to less than 160 points, it is determined that it is excellent as an anticoccidial material, and when it is 160 points or more, it is determined that the anticoccidial effect is very excellent (Luis Miguel De Pablos et al., Anticoccidial activity of maslinic acid against infection with Eimeria tenella in chickens, Parasitol Res, 2010). Anticoccidial index (ACI)=(survival rate after challenge inoculation(%))+(daily weight gain compared to negative control group (RWG,%))−(lesion score×10)−(fecal oocyst excretion amount index) (Equation 2) • 1) Survival rate: the number of dead individuals was recorded daily, and post mortem autopsy was performed to determine a cause of mortality, and the number of individuals who died due to causes other than coccidiosis was excluded. The survival rate (%) up to the 8th day after challenge inoculation was used for anticoccidial index calculation. The measured survival rate was described in Table 4 below. • 2) Daily weight gain: body weight was measured for each cage before challenge inoculation with a protozoan into an individual and at the 7th day after challenge inoculation, and the difference was divided by the number of days to calculate the daily weight gain (ADG, g/d). ‘Daily weight gain compared to the negative control group (RWG, %)’ which was calculated by dividing the daily weight gain (ADG, average daily gain; g/d) of each experimental group by the weight gain (ADG, g/d) of the non-infected negative control group and multiplying by 100 was used for anticoccidial index calculation. […]

Assay [2] deals with Eimeria tenella. Nature of the assay: Intracellular protozoan propagation inhibition in MDBK cells (ITS-1 PCR). It counts as cell-based. To be noted: read-out: Intracellular protozoan propagation inhibitory effect (%). The protocol:
In the present example, using MDBK cell line which is a representative animal cell known to cause Eimeria infection and propagation, the inhibition ability of intracellular protozoan invasion and intracellular protozoal propagation of the violacein was investigated.
100,000 MDBK cells (purchased from ATCC) were aliquoted in a 24-well plate, and then incubated at a temperature of 37° C. for 12 hours. The protozoan of Eimeria tenella was obtained similar to the method of Example 3 above. 200,000 protozoa per one well were added to wells in which cells were aliquoted, and cultured at a temperature of 41° C. for 24 hours, and then the cells were washed using PBS solution twice to remove protozoa which were not attached to the cells. Each material (violacein and anticoccidial agents, salinomycin, diclazuril and gallic acid) was treated to the cells by concentration, and further cultured at a temperature of 41° C. for 24 hours. A negative control group is a MDBK cell infected by protozoa, and a positive control group means a group in which salinomycin and diclazuril solution was incubated with the Eimeria tenella protozoan. After removing the cells and protozoa inside the cells through pipetting, DNA was extracted from the cells, and PCR was performed using E. tenella ITS-1 (Internal transcribed spacer-1) gene-specific primers. The sequences of the used primers were described in Table 9 above.
The intracellular protozoan propagation inhibition rate (%) through treatment of the material was calculated by comparing Ct values in the material treatment groups compared to the negative control group, and the result was shown in FIG. 3 and Table 10.

This note sets out measurements from patent US12721835B2, “Anticoccidial composition comprising violacein, and use thereof” (CJ CHEILJEDANG CORPORATION, priority 2020, dated 2026).

Consider `CC[C@@H](C(=O)[C@@H](C)[C@@H](O)[C@H](C)[C@@H]1O[C@@H]([C@@H](CC)C(=O)O)CC[C@@H]1C)[C@H]1O[C@]2(C=C[C@@H](O)[C@]3(CC[C@@](C)([C@H]4CC[C@](O)(CC)[C@H](C)O4)O3)O2)[C@H](C)C[C@@H]1C` [Salinomycin, salinomycin, reference compound], for which, in assay [1] (feed 60 ppm), the “ADG(g/d) after challenge inoculation” value worked out at 56 g/day, the Oocyst index worked out at 10, the Lesion score is 2.6 and the Oocyst excretion amount/g came out at 1.3e+08 g⁻¹. Moreover, in assay [1] (feed 60 ppm), the Lesion index was determined as 26, the ACI was determined as 139, the “Survival rate after challenge inoculation (%)” value (“Survival rate … (%)” for short) stood at 87% and the “RWG(%)” value came to 88%. Besides, in assay [2] (MDBK, 24 h), the inhibition at 5 ppm came to 32.2% and the inhibition at 10 ppm was determined as 34.8%.
Turning to `O=C1N=c2ccccc2=C1c1cc(-c2c[nH]c3ccc(O)cc23)[nH]c1O` [Violacein, 3-(2-(5-Hydroxyindol-3-yl)-5-oxo-2-pyrrolin-4-ylidene)-2-indolinone], in assay [1] (feed 10 ppm), the “ADG(g/d) after challenge inoculation” value worked out at 60 g/day, the Oocyst index worked out at 10, the Lesion score worked out at 2.1 and the Oocyst excretion amount/g is 1.3e+08 g⁻¹. Besides, in assay [1] (feed 10 ppm), the Lesion index is given as 21, the ACI stood at 162, the “Survival rate … (%)” value was found to be 100% and the “RWG(%)” value is 94%. In addition, in assay [1] (feed 40 ppm), the “ADG(g/d) after challenge inoculation” value is 58 g/day, the Oocyst index came out at 10, the Lesion score is reported as 2.7 and the Oocyst excretion amount/g stood at 9e+07 g⁻¹. Besides, in assay [1] (feed 40 ppm), the Lesion index amounted to 27, the ACI is recorded as 145, the “Survival rate … (%)” value came out at 90% and the “RWG(%)” value was 91%. The inhibition at 0.5 ppm in assay [2] (MDBK cells, 0.5 ppm, treated after invasion, 24 hours) was found to be 53.7%. In addition, the inhibition at 1 ppm in assay [2] (MDBK cells, 1 ppm, treated after invasion, 24 hours) was found to be 45.8%.
